How the values were obtained:
[1] = system: murine model of acute colitis (DSS, C3H/HeJ mice); assay: Acute colitis model: dextran sodium sulfate (DSS) colitis; format: in vivo, mouse; settings: 3.5% DSS; 1 mg/kg i.p. from two days before DSS, then every other day
Source text: FIG. 11 (a) depicts, in accordance with an embodiment herein, the effect of CB2 agonist on murine model of acute colitis. Groups of 5 wildtype C3H/HeJ mice were challenged with either DSS 3.5% or acidified water and injected intraperitoneally with CB2 agonist (AM1241(AM)) or antagonist (SR144928 (SR)) or vehicle control (DMSO (D) for AM1241, or EtOH (E) for SR144928) and monitored for weight loss. Intestinal sections were scored histologically at day 10. (b) and (c.) depicts the comparison of DSS colitis in CB2−/− and WT mice, with (b) weight loss and (c) histologic scoring. This is representative of three or more independent experiments.
3.5% Dextran sulfate sodium (prepared in acidified drinking water) was obtained from MP Biomedicals, Inc (Solon, Ohio). Acidified drinking water of colitis-induced mice was replaced with DSS solution for a total of eight days. Controls were given standard acidified drinking water. All mice were sacrificed on day 12, at which time the DSS-treated mice had lost approximately 20% of their body weight. Experiments were performed in duplicate, with groups of 6 mice in each treatment arm. AM1241 (Sigma-Aldrich, MO, in DMSO, 1 mg/mL) was suspended in 250 μL sterile 0.9% saline and injected intraperitoneally (i.p.) at a dose of 1 mg/kg beginning two days prior to the administration of DSS (or acidified drinking water in the control group) and then every other day until the mice were euthanized. […]
Colitis was quantified by both weight loss and histology of intestinal sections. […] Each section was then scored by one blinded pathologist using a standard experimental colitis scoring system.
The effect of CB2-specific agonist in the setting of acute colitis was evaluated using dextran sodium sulfate (DSS), an ingested agent which induces acute, non-T cell mediated colitis (weight loss and bloody diarrhea) within three to five days. Mice were pre-treated with AM1241 or vehicle control, and then monitored for the level of acute colitis induced by DSS ingestion. […]

CB2 receptor = assay: CB2 agonist (AM1241) inhibition of forskolin-stimulated cAMP production in patient lymphoblastoid cell lines, ELISA; format: cell-based, human; settings: 250 nM AM1241; 25 nM forskolin; Crohn's disease patient LCLs
Procedure: FIG. 7 depicts, in accordance with an embodiment herein, CB2 receptor protein expression and function. Flow cytometry data derived from staining of 40 Crohn's disease patient lymphoblastoid cell lines with monoclonal CB2 receptor (IgG2A) was generated. LCLs from patients with Crohn's disease were grown in culture and plated 1×10^6 per well on a 96 well plate. These cells were then incubated for 20 minutes with 10 mM IBMX, a phosphodiesterase inhibitor, and washed. Cells were incubated in the presence of various concentrations of forskolin or media control with or without the addition of 250 nM AM1241. Samples were run in triplicate. […] Plates were frozen at −20 degrees and lysates assayed the following day for cAMP concentration using a commercial ELISA kit (R and D) and microwell ELISA plate reader.
A CNR2 candidate gene case-control analysis was performed with 449 patients with Crohn's disease, 215 with ulcerative colitis, and 201 controls. […] EBV immortalized lymphoblastoid cell lines (LCLs) were analyzed for CB2 receptor by flow cytometry, and for CB2 receptor function (Gi-mediated adenylate cyclase inhibition) by CB2 agonist (AM1241) inhibition of forskolin-stimulated cAMP production, measured by ELISA.
To assess the LCL response to CB2 specific agonist, intracellular cAMP was quantified using a standard ELISA kit (R and D Systems). […]

[2] = system: murine model of immune colitis (Rag1 −/− mice); assay: Immune colitis model: transfer of Gαi2−/− T cells into Rag1 −/− mice; format: in vivo, mouse; settings: i.p. every other day, vs DMSO vehicle

Row | Compound | DSS colitis severity compared to vehicle control [1] | inhibition of forskolin-stimulated adenylate cyclase-dependent cAMP response (CB2 receptor) | weight loss compared to vehicle control ([2]; Rag1 −/− mice after Gαi2−/− T cell transfer) | quantitative histologic scoring of intestinal inflammation compared to vehicle control ([2]; sacrificed 8 weeks after T cell transfer)
1 | COc1ccc(C(=O)c2c(C)n(CCN3CCOCC3)c3cc(I)ccc23)cc1 [AM630] | reduced DSS colitis severity |  |  | 
2 | CN1CCCCC1Cn1cc(C(=O)c2cc([N+](=O)[O-])ccc2I)c2ccccc21 (stereo not drawn) [AM1241] | significantly more severe | approximately 55% | lost significantly less weight | dramatically reduced for inflammation
3 | SR144528 | ameliorated DSS colitis |  |  | 

— patent US20110124644A1, “METHODS OF DIAGNOSING AND CHARACTERIZING CANNABINOID SIGNALING IN CROHN'S DISEASE” (CEDARS-SINAI MEDICAL CENTER, priority 2008, published 2011)
